Where two headings read alike, the source gives them in different places.
How the values were obtained:
[1] = system: five cancer cell cultures; experiment: MTT cytotoxicity assay, five cancer cell cultures taken together; details: for less cytotoxic than 8a / cytotoxicity reduced: relative to 8a; for cytotoxicity (in words): five cancer cell lines
A-549 lung carcinoma = experiment: MTT cytotoxicity assay, A-549; details: Homo sapiens, A549, […], read-out: Cytotoxicity ED50, A-549
MCF-7 breast carcinoma = experiment: MTT cytotoxicity assay, MCF-7; details: Homo sapiens, MCF7, […], read-out: Cytotoxicity ED50, MCF-7
MLM melanoma = experiment: MTT cytotoxicity assay, MLM; details: […], read-out: Cytotoxicity ED50, MLM
SKMEL-5 melanoma = experiment: MTT cytotoxicity assay, SKMEL-5; details: Homo sapiens, SK-MEL-5, […], read-out: Cytotoxicity ED50, SKMEL-5
[2] = system: HT-29 colon adenocarcinoma; experiment: MTT cytotoxicity assay, HT-29; details: Homo sapiens, HT-29, […], read-out: Cytotoxicity ED50, HT-29
tubulin = experiment: Inhibition of tubulin polymerization (turbidimetry); format: biochemical, bovine; details: for IC50: second series (Tables V-VII, IX), read-out: Inhibition of Tubulin Polymerization IC50 (±S.D.)
[3] = read-out: cytotoxicity ED50, five cancer cell lines
[4] = read-out: cytotoxicity ED50, in at least four cell lines
[5] = read-out: cytotoxicity ED50, A-549, MCF-7, HT-29, and SKMEL-5 cell cultures

| SMILES | IC50 (tubulin) [nM] | less cytotoxic than 8a / cytotoxicity reduced [1] | IC50 (A-549 lung carcinoma) [nM] | IC50 (MCF-7 breast carcinoma) [nM] | IC50 (MLM melanoma) [nM] | IC50 (SKMEL-5 melanoma) [nM] | IC50 [2] [nM] | IC50 [1, 3] [nM] | cytotoxicity (in words) [1] | cytotoxicity reduced relative to 27 ([1]; 28 relative to 27) [times] | IC50 [1, 4] [nM] | IC50 [1, 5] [nM] | inhibition of tubulin polymerization (in words) (tubulin) | IC50 ([1]; read-out: cytotoxicity ED50) [nM] |
| --- | --- | --- | --- | --- | --- | --- | --- | --- | --- | --- | --- | --- | --- | --- |
| CCN(CC)CCOC(=O)/C(=C/c1cccc(OC)c1)c1cc(OC)c(OC)c(OC)c1 [24f, (E)-(2-N,N-Diethylamino)ethyl-3-(3-methoxyphenyl)-2-(3,4,5-trimethoxyphenyl)-prop-2-enoate] | > 40000 |  | 7700 | 10400 | > 25000 | 6700 | > 25000 |  | did not show considerable cytotoxicity |  |  |  |  |  |
| CCOc1ccc(CCc2cc(OC)c(OC)c(OC)c2)cc1 [17a, 1-(4-Ethoxyphenyl)-2-(3,4,5-trimethoxyphenyl)ethane] | 10000 |  | 190 | 190 | 2700 | 170 | 180 |  |  |  | < 1000 |  |  |  |
| COc1ccccc1/C=C\c1cc(OC)c(OC)c(OC)c1 [compound 5c, (Z)-1-(2-Methoxyphenyl)-2-(3,4,5-trimethoxyphenyl)ethene] |  |  | 1100 | 1300 | 8600 | 1200 | 870 |  | decreased the activity drastically |  |  |  | low activity |  |
| CCN(CC)CCOc1ccc(CCc2cc(OC)c(OC)c(OC)c2)cc1 [17g] | > 40000 |  | 6800 | 4300 | > 25000 | 8500 | 5200 |  | decreased cytotoxicity |  |  |  |  |  |
| COc1ccc(/C=C\c2ccc(OC)c(OC)c2)cc1 [15h, (Z)-(4-Methoxyphenyl)-2-(3,4-dimethoxyphenyl)ethene] |  |  | > 25000 | > 25000 | > 25000 | > 25000 | > 25000 | > 25000 |  |  |  |  |  |  |
| COc1ccc(/C=C\c2cc(OC)cc(OC)c2)cc1 [15i, (Z)-1-(3,5-Dimethoxyphenyl)-2-(4-methoxyphenyl)ethene] | 3800 |  | 130 | 160 | 98 | 420 | 340 |  |  |  |  |  |  | ~100 |
| COc1cc(/C=C\c2cccnc2)cc(OC)c1OC [5j, (Z)-1-(3-Pyridyl)-2-(3,4,5-trimethoxyphenyl)ethene] |  |  | 13700 | 14700 | > 25000 | 6000 | 9800 | > 10000 |  |  |  |  |  |  |
| CCCOc1ccc(CCc2cc(OC)c(OC)c(OC)c2)cc1 [17b, 1-(4-n-Propoxyphenyl)-2-(3,4,5-trimethoxyphenyl)ethane] | > 40000 |  | 7200 | 3900 | 15000 | 6700 | 6400 |  | decreased cytotoxicity |  |  |  |  |  |
| CCOc1ccc(/C=C/c2cc(OC)c(OC)c(OC)c2)cc1 [16a] |  |  | 170 | 750 | 220 | 1170 | 1490 |  |  |  |  |  |  | ~100 |
| CCN(CC)CCOC(=O)/C(=C/c1ccc(OC)cc1)c1cc(OC)c(OC)c(OC)c1 [24e, (E)-(2-N,N-Diethylamino)ethyl-3-(4-methoxyphenyl)-2-(3,4,5-trimethoxyphenyl)-prop-2-enoate] | > 40000 |  | 1800 | 2100 | > 25000 | 2700 | 2800 |  | did not show considerable cytotoxicity |  |  |  |  |  |
| COc1cc(CCc2ccc(SC)cc2)cc(OC)c1OC [17c, 1-(4-Methylthiophenyl)-2-(3,4,5-trimethoxyphenyl)ethane] | > 40000 |  | 150 | 200 | 1300 | 240 | 400 |  | decreased cytotoxicity |  |  |  |  |  |
| COc1cc(/C=C\c2ccc([N+](=O)[O-])cc2)cc(OC)c1OC [5l, (Z)-1-(4-Nitrophenyl)-2-(3,4,5-trimethoxyphenyl)ethene] |  |  | > 25000 | > 25000 | > 25000 | > 25000 | > 25000 |  | decreased the activity drastically |  |  |  |  |  |
| COc1cc(/C=C\c2ccncc2)cc(OC)c1OC [5i, (Z)-1-(4-Pyridyl)-2-(3,4,5-trimethoxyphenyl)ethene] |  |  | 14200 | 17000 | > 25000 | 14400 | 12900 | > 10000 |  |  |  |  |  |  |

Now from value to compound, other results behind:

| IC50 (tubulin) [nM] | SMILES | less cytotoxic than 8a / cytotoxicity reduced [1] | IC50 (A-549 lung carcinoma) [nM] | IC50 (MCF-7 breast carcinoma) [nM] | IC50 (MLM melanoma) [nM] | IC50 (SKMEL-5 melanoma) [nM] | IC50 [2] [nM] | IC50 [1, 3] [nM] | cytotoxicity (in words) [1] | cytotoxicity reduced relative to 27 ([1]; 28 relative to 27) [times] | IC50 [1, 4] [nM] | IC50 [1, 5] [nM] | inhibition of tubulin polymerization (in words) (tubulin) | IC50 ([1]; read-out: cytotoxicity ED50) [nM] |
| --- | --- | --- | --- | --- | --- | --- | --- | --- | --- | --- | --- | --- | --- | --- |
| 7400 | COc1ccc(C(=O)c2cc(OC)c(OC)c(OC)c2)cc1 [compound 27, 3,4,4',5-Tetramethoxybenzophenone] | about 100 -fold | 11 | 15 | 13 | 12 | 13 |  |  |  |  |  |  |  |
| > 40000 | COC(=O)C(Cc1cc(OC)c(OC)c(OC)c1)c1ccc(OC)cc1 (stereo not shown) [compound 17j, Methyl 2-(4-methoxyphenyl)-3-(3,4,5-trimethoxyphenyl)n-proponate] |  | > 25000 | > 25000 | > 25000 | > 25000 | > 25000 | > 25000 |  |  |  |  |  |  |
| > 40000 | COc1ccc(C(O)c2cc(OC)c(OC)c(OC)c2)cc1 (stereo not shown) [compound 28, 4-Methoxyphenyl-(3,4,5-trimethoxyphenyl)methanol] |  | 1500 | 1900 | 16800 | 1500 | 1200 |  |  | 100 |  |  |  |  |
| > 40000 | COc1ccc(C(C#N)Cc2cc(OC)c(OC)c(OC)c2)cc1 (stereo not shown) [compound 17i, 2-(4-Methoxyphenyl)-3-(3,4,5-trimethoxyphenyl)propanonitrile] | 10,000 -fold | 11500 | 14300 | 21100 | 6400 | 9400 |  |  |  |  |  |  |  |
| > 40000 | CCNC(=O)/C(=C/c1ccc(OC)cc1)c1cc(OC)c(OC)c(OC)c1 [compound 24d, (E)-N-Ethyl-[3-(4-methoxyphenyl)-2-(3,4,5-trimethoxyphenyl)]-prop-2-enoamide] |  | 3400 | 3700 | > 25000 | 7050 | 1800 |  | did not show considerable cytotoxicity |  |  |  |  |  |
| > 40000 | COC(=O)/C(=C/c1ccc(OC)cc1)c1cc(OC)c(OC)c(OC)c1 [compound 24a, (E)-Methyl 3-(4-methoxyphenyl)-2-(3,4,5-trimethoxyphenyl)-prop-2-enoate] |  | 11 | 20 | 9600 | 6.4 | 9.5 |  |  |  |  | 6.4 to 50 |  |  |
| 11000 | COc1ccc(CC(C#N)c2cc(OC)c(OC)c(OC)c2)cc1 (stereo not shown) [compound 17h, 3-(4-Methoxyphenyl)-2-(3,4,5-trimethoxyphenyl)propanonitrile] |  | 9.6 | 14 | 1600 | 4.1 | 7.5 |  |  |  | < 1000 |  |  |  |
| 35000 | CNC(=O)/C(=C/c1ccc(OC)cc1)c1cc(OC)c(OC)c(OC)c1 [compound 24c, (E)-N-Methyl-[3-(4-methoxyphenyl)-2-(3,4,5-trimethoxyphenyl)]-prop-2-enoamide] |  | 24 | 50 | 9300 | 24 | 26 |  |  |  |  | 6.4 to 50 |  |  |

— patent US5430062A, “Stilbene derivatives as anticancer agents” (priority 1993, dated 1995)
